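Results reflect a 48-hour exposure of cells in 96-well plates to compound at five concentrations. TGI marks complete inhibition of growth.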
Key:
Assay in all cases: growth of human tumour cells (NCI), 48 h
MDA-MB-435 = test system: MDA-MB-435
OVCAR-4 ovarian = test system: OVCAR-4 ovarian
T-47D breast = test system: T-47D breast
UACC-62 melanoma = test system: UACC-62 melanoma
MDA-MB-231 breast = test system: MDA-MB-231 breast
MCF7 breast = test system: MCF7 breast
OVCAR-3 ovarian = test system: OVCAR-3 ovarian
HCT-15 colon = test system: HCT-15 colon
TK-10 renal = test system: TK-10 renal
U251 CNS = test system: U251 CNS
UACC-257 melanoma = test system: UACC-257 melanoma
SNB-19 CNS = test system: SNB-19 CNS
HOP-62 NSCLC = test system: HOP-62 NSCLC
786-0 renal = test system: 786-0 renal
DU-145 prostate = test system: DU-145 prostate
SW-620 colon = test system: SW-620 colon
RXF 393 renal = test system: RXF 393 renal
SF-268 CNS = test system: SF-268 CNS
SF-295 CNS = test system: SF-295 CNS
K-562 leukemia = test system: K-562 leukemia
KM12 colon = test system: KM12 colon
SN12C renal = test system: SN12C renal
CAKI-1 renal = test system: CAKI-1 renal
SNB-75 CNS = test system: SNB-75 CNS
ACHN renal = test system: ACHN renal
HCT-116 colon = test system: HCT-116 colon
HCC-2998 colon = test system: HCC-2998 colon
M14 melanoma = test system: M14 melanoma
HS 578T breast = test system: HS 578T breast
HT29 colon = test system: HT29 colon
SK-MEL-28 melanoma = test system: SK-MEL-28 melanoma
NCI/ADR-RES ovarian = test system: NCI/ADR-RES ovarian
CCRF-CEM leukemia = test system: CCRF-CEM leukemia
OVCAR-5 ovarian = test system: OVCAR-5 ovarian
EKVX NSCLC = test system: EKVX NSCLC
RPMI-8226 leukemia = test system: RPMI-8226 leukemia
BT-549 breast = test system: BT-549 breast
HOP-92 NSCLC = test system: HOP-92 NSCLC
NCI-H522 lung = test system: NCI-H522 lung
A549 NSCLC = test system: A549 NSCLC
IGROV1 ovarian = test system: IGROV1 ovarian
SK-MEL-5 melanoma = test system: SK-MEL-5 melanoma
COLO 205 colon = test system: COLO 205 colon
OVCAR-8 ovarian = test system: OVCAR-8 ovarian
NCI-H226 lung = test system: NCI-H226 lung
MOLT-4 leukemia = test system: MOLT-4 leukemia
MALME-3M melanoma = test system: MALME-3M melanoma
SK-OV-3 ovarian = test system: SK-OV-3 ovarian
MDA-N = test system: MDA-N
NCI-H23 lung = test system: NCI-H23 lung
SF-539 CNS = test system: SF-539 CNS
LOX IMVI melanoma = test system: LOX IMVI melanoma
NCI-H460 lung = test system: NCI-H460 lung
HL-60(TB) leukemia = test system: HL-60(TB) leukemia
A498 renal = test system: A498 renal
UO-31 renal = test system: UO-31 renal
SR leukemia = test system: SR leukemia
PC-3 prostate = test system: PC-3 prostate
SK-MEL-2 melanoma = test system: SK-MEL-2 melanoma

In the case of `OCC(O)C(O)C(O)/C=N/Nc1nc(O)c(/C=C2\C=Nc3ccccc32)[nH]1` (configuration not stated), the TGI (MDA-MB-435) is reported as > 100 µM, the TGI (OVCAR-4 ovarian) is reported as > 100 µM and the TGI (T-47D breast) is reported as > 100 µM. The TGI (UACC-62 melanoma) was > 100 µM, the TGI (MDA-MB-231 breast) was > 100 µM and the TGI (MCF7 breast) was > 100 µM. For the same compound, the TGI (OVCAR-3 ovarian) was > 100 µM, the TGI (HCT-15 colon) was > 100 µM and the TGI (TK-10 renal) was > 100 µM. For the same compound, the TGI (U251 CNS) was > 100 µM, the TGI (UACC-257 melanoma) was > 100 µM and the TGI (SNB-19 CNS) was > 100 µM. The TGI (HOP-62 NSCLC) was > 100 µM, the TGI (786-0 renal) was > 100 µM and the TGI (DU-145 prostate) was > 100 µM. The TGI (SW-620 colon) was > 100 µM, the TGI (RXF 393 renal) was > 100 µM and the TGI (SF-268 CNS) was > 100 µM. The TGI (SF-295 CNS) was > 100 µM, the TGI (K-562 leukemia) was > 100 µM and the TGI (KM12 colon) was > 100 µM. The TGI (SN12C renal) was > 100 µM, the TGI (CAKI-1 renal) was > 100 µM and the TGI (SNB-75 CNS) was > 100 µM. The TGI (ACHN renal) was > 100 µM, the TGI (HCT-116 colon) was > 100 µM and the TGI (HCC-2998 colon) was > 100 µM. For the same compound, the TGI (M14 melanoma) was > 100 µM, the TGI (HS 578T breast) was > 100 µM and the TGI (HT29 colon) was > 100 µM. For the same compound, the TGI (SK-MEL-28 melanoma) was > 100 µM, the TGI (NCI/ADR-RES ovarian) was > 100 µM and the TGI (CCRF-CEM leukemia) was > 100 µM. The TGI (OVCAR-5 ovarian) was > 100 µM, the TGI (EKVX NSCLC) was > 100 µM and the TGI (RPMI-8226 leukemia) was > 100 µM. For the same compound, the TGI (BT-549 breast) was > 100 µM, the TGI (HOP-92 NSCLC) was > 100 µM and the TGI (NCI-H522 lung) was > 100 µM. The TGI (A549 NSCLC) was > 100 µM, the TGI (IGROV1 ovarian) was > 100 µM and the TGI (SK-MEL-5 melanoma) was > 100 µM. For the same compound, the TGI (COLO 205 colon) was > 100 µM, the TGI (OVCAR-8 ovarian) was > 100 µM and the TGI (NCI-H226 lung) was > 100 µM. The TGI (MOLT-4 leukemia) was > 100 µM, the TGI (MALME-3M melanoma) was > 100 µM and the TGI (SK-OV-3 ovarian) was > 100 µM. For the same compound, the TGI (MDA-N) was > 100 µM, the TGI (NCI-H23 lung) was > 100 µM and the TGI (SF-539 CNS) was > 100 µM. The TGI (LOX IMVI melanoma) was > 100 µM, the TGI (NCI-H460 lung) was > 100 µM and the TGI (HL-60(TB) leukemia) was > 100 µM.

`C=C1C(=O)OC2/C=C(/C)C3(O)OC(C)(CC(OC(=O)C(C)C)C12)CC3OC(C)=O` (configuration not stated) was tested, and the TGI (MDA-MB-435) was > 43.8 µM, the TGI (A498 renal) was 15.5 µM and the TGI (OVCAR-4 ovarian) was > 65.5 µM. For the same compound, the TGI (T-47D breast) was > 100 µM, the TGI (UACC-62 melanoma) was 31.6 µM and the TGI (MDA-MB-231 breast) was > 42.6 µM. For the same compound, the TGI (MCF7 breast) was 26.3 µM, the TGI (OVCAR-3 ovarian) was 29.8 µM and the TGI (HCT-15 colon) was 24.5 µM. It also gave a TGI (TK-10 renal) of 24.4 µM, a TGI (U251 CNS) of 38.2 µM and a TGI (UACC-257 melanoma) of 68 µM. For the same compound, the TGI (SNB-19 CNS) was 36.6 µM, the TGI (HOP-62 NSCLC) was > 100 µM and the TGI (786-0 renal) was > 100 µM. For the same compound, the TGI (DU-145 prostate) was > 69.6 µM, the TGI (SW-620 colon) was > 45.1 µM and the TGI (RXF 393 renal) was 6.82 µM. For the same compound, the TGI (SF-268 CNS) was > 100 µM, the TGI (SF-295 CNS) was 56.5 µM and the TGI (K-562 leukemia) was > 100 µM. The TGI (KM12 colon) was 41 µM, the TGI (SN12C renal) was 17.5 µM and the TGI (CAKI-1 renal) was 7.18 µM. The TGI (SNB-75 CNS) was > 100 µM, the TGI (ACHN renal) was 8.67 µM and the TGI (HCT-116 colon) was > 100 µM. For the same compound, the TGI (HCC-2998 colon) was 16.5 µM, the TGI (M14 melanoma) was 68 µM and the TGI (UO-31 renal) was 22.2 µM. The TGI (SR leukemia) was > 31.5 µM, the TGI (HT29 colon) was 22 µM and the TGI (SK-MEL-28 melanoma) was > 53 µM. For the same compound, the TGI (NCI/ADR-RES ovarian) was > 100 µM, the TGI (CCRF-CEM leukemia) was > 25.5 µM and the TGI (OVCAR-5 ovarian) was 65.9 µM. For the same compound, the TGI (EKVX NSCLC) was 46.5 µM, the TGI (RPMI-8226 leukemia) was > 100 µM and the TGI (BT-549 breast) was 22.3 µM. For the same compound, the TGI (HOP-92 NSCLC) was 40.1 µM, the TGI (NCI-H522 lung) was 6.25 µM and the TGI (A549 NSCLC) was > 100 µM. The TGI (IGROV1 ovarian) was 36.6 µM, the TGI (SK-MEL-5 melanoma) was 23.8 µM and the TGI (COLO 205 colon) was 18.1 µM. The TGI (OVCAR-8 ovarian) was > 100 µM, the TGI (NCI-H226 lung) was > 87 µM and the TGI (MOLT-4 leukemia) was > 31.6 µM. The TGI (MALME-3M melanoma) was 36.5 µM, the TGI (SK-OV-3 ovarian) was 26.1 µM and the TGI (PC-3 prostate) was 62.9 µM. It also gave a TGI (MDA-N) of 4.94 µM, a TGI (NCI-H23 lung) of 18.6 µM and a TGI (SK-MEL-2 melanoma) of 49.7 µM. For the same compound, the TGI (SF-539 CNS) was > 29.5 µM, the TGI (LOX IMVI melanoma) was > 68.8 µM and the TGI (NCI-H460 lung) was 25 µM. The TGI (HL-60(TB) leukemia) was > 19.7 µM.

Reference: PubChem BioAssay (NCI)
